Tests used:
[1] = tested on: SKOV3 Ovarian Tumor Cells Implanted SC in SCID Mice; test: tissue distribution, SKOV3 tumor-bearing SCID mice; type: in vivo
Procedure: For the in vitro amino acid uptake studies, all cells can be grown to monolayer confluency in T-175 culture flasks [Corning, Corning, N.Y.] (approx. 1×10^8 cells/flask) in Dulbecco's Modified Eagle's Medium (DMEM) [Sigma, St. Louis, Mo.] in a humidified incubator (37° C., 5% CO2/95% air). Media are supplemented with 10% fetal calf serum [Hyclone, Logan, Utah], and antibiotics (10,000 U/ml penicillin and 10 mg/ml streptomycin) (Sigma, St. Louis, Mo.). For tissue culture passage, monolayer cells are detached by gentle trypsinization, resuspended in complete media, and split 1:10 into new T-flasks. Cultures are passaged weekly, and fed fresh media every 2 to 3 days. To initiate tumor growth in SCID mice, 1×10^6 cells are injected s.c. bilaterally into the flanks (inguinal region) of the recipient animals using a 1 ml syringe with a 27 gauge needle. Ex vivo experiments can be performed with animals containing tumors weighing between 500 mg and 1 g, as estimated by caliper measurement (tumor weight=(π/6)*abc, where a, b and c are the tumor length, width and height, respectively). The compounds of the invention are further evaluated for their tumor specificity and selectivity in tumor-bearing animal models. One can evaluate and compare the transport, accumulation and tissue distribution of each compound in these in vivo animal studies. Tissue distribution of the compounds is measured in SCID mice (average weight, 20-25 g) bearing human tumors as follows. The candidate radioligands (20 uCi in 0.4 ml 0.9% NaCl) are injected into the tail vein of tumor-bearing mice. […] Tissues (blood, heart, liver, lungs, kidneys, bone, thyroid, muscle, brain and tumor) are excised, rinsed in saline, and blotted dry. The tissues are weighed, placed into 12×75 mm glass vials, the radioactivity determined with a gamma counter, and the percent dose/gram calculated. Total activities of blood and muscle are calculated by assuming that they account for 7% and 40% of the total body mass, respectively.

[2] = tested on: A549 (lung), DU145 (prostate), SKOV3 (ovary), and MDA MB468 (breast) tumor-bearing SCID mice; test: in vivo biodistribution studies, summary over tumor models; conditions: injected intravenously
Procedure: For the in vitro amino acid uptake studies, all cells can be grown to monolayer confluency in T-175 culture flasks [Corning, Corning, N.Y.] (approx. 1×10^8 cells/flask) in Dulbecco's Modified Eagle's Medium (DMEM) [Sigma, St. Louis, Mo.] in a humidified incubator (37° C., 5% CO2/95% air). Media are supplemented with 10% fetal calf serum [Hyclone, Logan, Utah], and antibiotics (10,000 U/ml penicillin and 10 mg/ml streptomycin) (Sigma, St. Louis, Mo.). For tissue culture passage, monolayer cells are detached by gentle trypsinization, resuspended in complete media, and split 1:10 into new T-flasks. Cultures are passaged weekly, and fed fresh media every 2 to 3 days. To initiate tumor growth in SCID mice, 1×10^6 cells are injected s.c. bilaterally into the flanks (inguinal region) of the recipient animals using a 1 ml syringe with a 27 gauge needle. Ex vivo experiments can be performed with animals containing tumors weighing between 500 mg and 1 g, as estimated by caliper measurement (tumor weight=(π/6)*abc, where a, b and c are the tumor length, width and height, respectively). The compounds of the invention are further evaluated for their tumor specificity and selectivity in tumor-bearing animal models. One can evaluate and compare the transport, accumulation and tissue distribution of each compound in these in vivo animal studies. Tissue distribution of the compounds is measured in SCID mice (average weight, 20-25 g) bearing human tumors as follows. The candidate radioligands (20 uCi in 0.4 ml 0.9% NaCl) are injected into the tail vein of tumor-bearing mice. The animals are sacrificed (cervical dislocation) at 5, 30, 60 and 120 minutes post-injection. Tissues (blood, heart, liver, lungs, kidneys, bone, thyroid, muscle, brain and tumor) are excised, rinsed in saline, and blotted dry. The tissues are weighed, placed into 12×75 mm glass vials, the radioactivity determined with a gamma counter, and the percent dose/gram calculated. Total activities of blood and muscle are calculated by assuming that they account for 7% and 40% of the total body mass, respectively. As exemplified above, the amino acid compounds of the invention have advantageous physiological characteristics (i.e., tumor binding specificity and selectivity, in vivo stability etc).

[3] = 120 min p.i., range over tumor models

% Dose/g blood ([1]; 15 Minutes): 3.01 % Dose/g | % Dose/g bone ([1]; 15 Minutes): 1.40 % Dose/g | % Dose/g brain ([1]; 15 Minutes): 0.18 % Dose/g | % Dose/g heart ([1]; 15 Minutes): 2.37 % Dose/g | % Dose/g kidney ([1]; 15 Minutes): 8.70 % Dose/g | % Dose/g liver ([1]; 15 Minutes): 2.62 % Dose/g | % Dose/g lung ([1]; 15 Minutes): 3.96 % Dose/g | % Dose/g muscle ([1]; 15 Minutes): 1.14 % Dose/g | % Dose/g pancreas ([1]; 15 Minutes): 34.27 % Dose/g | % Dose/g spleen ([1]; 15 Minutes): 5.00 % Dose/g | % Dose/g tumor ([1]; 15 Minutes): 4.89 % Dose/g | % Dose/g blood ([1]; 30 Minutes): 2.22 % Dose/g | % Dose/g bone ([1]; 30 Minutes): 1.46 % Dose/g | % Dose/g brain ([1]; 30 Minutes): 0.21 % Dose/g | % Dose/g heart ([1]; 30 Minutes): 2.16 % Dose/g | % Dose/g kidney ([1]; 30 Minutes): 6.12 % Dose/g | % Dose/g liver ([1]; 30 Minutes): 2.49 % Dose/g | % Dose/g lung ([1]; 30 Minutes): 2.65 % Dose/g | % Dose/g muscle ([1]; 30 Minutes): 1.21 % Dose/g | % Dose/g pancreas ([1]; 30 Minutes): 31.88 % Dose/g | % Dose/g spleen ([1]; 30 Minutes): 5.22 % Dose/g | % Dose/g tumor ([1]; 30 Minutes): 5.56 % Dose/g | % Dose/g blood ([1]; 60 Minutes): 0.94 % Dose/g | % Dose/g bone ([1]; 60 Minutes): 0.91 % Dose/g | % Dose/g brain ([1]; 60 Minutes): 0.15 % Dose/g | % Dose/g heart ([1]; 60 Minutes): 1.40 % Dose/g | % Dose/g kidney ([1]; 60 Minutes): 2.27 % Dose/g | % Dose/g liver ([1]; 60 Minutes): 1.28 % Dose/g | % Dose/g lung ([1]; 60 Minutes): 1.26 % Dose/g | % Dose/g muscle ([1]; 60 Minutes): 1.03 % Dose/g | % Dose/g pancreas ([1]; 60 Minutes): 17.57 % Dose/g | % Dose/g spleen ([1]; 60 Minutes): 2.57 % Dose/g | % Dose/g tumor ([1]; 60 Minutes): 4.53 % Dose/g | % Dose/g blood ([1]; 120 Minutes): 0.53 % Dose/g | % Dose/g bone ([1]; 120 Minutes): 0.94 % Dose/g | % Dose/g brain ([1]; 120 Minutes): 0.16 % Dose/g | % Dose/g heart ([1]; 120 Minutes): 1.00 % Dose/g | % Dose/g kidney ([1]; 120 Minutes): 1.37 % Dose/g | % Dose/g liver ([1]; 120 Minutes): 0.67 % Dose/g | % Dose/g lung ([1]; 120 Minutes): 0.68 % Dose/g | % Dose/g muscle ([1]; 120 Minutes): 0.65 % Dose/g | % Dose/g pancreas ([1]; 120 Minutes): 10.42 % Dose/g | % Dose/g spleen ([1]; 120 Minutes): 1.51 % Dose/g | % Dose/g tumor ([1]; 120 Minutes): 3.39 % Dose/g | tumor uptake [2, 3]: 1.4-3.4 % dose/g | tumor-to brain ratio [2, 3]: 15-30 | tumor-to kidney ratio [2, 3]: 1.5-2.7 | tumor-to liver ratio [2, 3]: 2.4-4 | tumor-to muscle ratio [2, 3]: 2-4
SMILES: NC1(C(=O)O)CCC1[18F] [Anti-R,S 2-[^18F]FACBC, (R,S) anti-1-amino-2-[^18F]fluorocyclobutyl-1-carboxylic acid]
accumulation of radioactivity in tumors [2]: rapid and prolonged accumulation of radioactivity in tumors

Reference: patent publication US8834841B2, “Imaging agents” (priority 2005, dated 2014)
